Assay results: patent US8519134B2, “Aryl-pyridine derivatives as aldosterone synthase inhibitors” (Novartis AG, priority 2009, dated 2013)
Structures can show the parent of a compound that is named as a salt.

Columns and labels:
CYP11B2 (aldosterone) = target: T1, CYP11B2 (aldosterone) (Homo sapiens, UniProt P19099); test: Inhibition of aldosterone production in NCI-H295R cells (Ang II stimulated, SPA); assay type: cell-based; settings: inhibitory activity on aldosterone production, read-out: Aldosterone (cell)
T1 construct: host or cells: NCI-H295R (human adrenocortical carcinoma)
T1 sequence (P19099 25-503): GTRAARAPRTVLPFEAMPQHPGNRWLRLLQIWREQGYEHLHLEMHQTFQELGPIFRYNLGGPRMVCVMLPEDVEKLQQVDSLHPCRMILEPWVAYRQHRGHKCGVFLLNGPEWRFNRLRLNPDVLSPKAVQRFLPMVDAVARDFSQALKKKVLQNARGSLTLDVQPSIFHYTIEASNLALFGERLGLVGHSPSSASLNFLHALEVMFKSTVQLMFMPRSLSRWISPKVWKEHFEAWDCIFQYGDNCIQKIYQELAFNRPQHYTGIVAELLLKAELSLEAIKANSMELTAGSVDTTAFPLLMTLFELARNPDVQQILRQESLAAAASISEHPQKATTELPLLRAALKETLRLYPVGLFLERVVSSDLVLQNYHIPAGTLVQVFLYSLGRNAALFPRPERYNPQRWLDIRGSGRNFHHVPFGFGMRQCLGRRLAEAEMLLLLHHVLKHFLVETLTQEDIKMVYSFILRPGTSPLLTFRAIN
From the text: In particular, the aldosterone synthase inhibitory activities in vitro can be determined by the following assay.
Human adrenocortical carcinoma NCI-H295R cell line was obtained from American Type Culture Collection (Manassas, Va.). Insulin/transferrin/selenium (ITS)-A supplement (100×), DMEM/F-12, antibiotic/antimycotic (100×), and fetal bovine serum (FBS) were purchased from Invitrogen (Carlsbad, Calif.). Anti-mouse PVT scintillation proximity assay (SPA) beads and NBS 96-well plates were obtained from GE Health Sciences (Piscataway, N.J.) and Corning (Acton, Mass.), respectively. Solid black 96-well flat bottom plates were purchased from Costar (Corning, N.Y.). Aldosterone and angiotensin (Ang II) were purchased from Sigma (St. Louis, Mo.). D-[1,2,6,7-^3H(N)]aldosterone was acquired from PerkinElmer (Boston, Mass.). Nu-serum was a product of BD Biosciences (Franklin Lakes, N.J.).
For in vitro measurement of aldosterone activity, human adrenocortical carcinoma NCI-H295R cells are seeded in NBS 96-well plates at a density of 25,000 cells/well in 100 μl of a growth medium containing DMEM/F12 supplemented with 10% FCS, 2.5% Nu-serum, 1 μg ITS/ml, and 1× antibiotic/antimycotic. The medium is changed after culturing for 3 days at 37° C. under an atmosphere of 5% CO2/95% air. On the following day, cells are rinsed with 100 μl of phosphate-buffered saline (PBS) and incubated with 100 μl of treatment medium containing 1 μM Ang II and a compound at different concentrations in quadruplicate wells at 37° C. for 24 hr. At the end of incubation, 50 μl of medium is withdrawn from each well for measurement of aldosterone production by an SPA using mouse anti-aldosterone monoclonal antibodies.
Measurement of aldosterone activity can also be performed using a 96-well plate format. Each test sample is incubated with 0.02 μCi of D-[1,2,6,7-^3H(N)]aldosterone and 0.3 μg of anti-aldosterone antibody in PBS containing 0.1% Triton X-100, 0.1% bovine serum albumin, and 12% glycerol in a total volume of 200 μl at room temperature for 1 hr. Anti-mouse PVT SPA beads (50 μl) are then added to each well and incubated overnight at room temperature prior to counting in a Microbeta plate counter. The amount of aldosterone in each sample is calculated by comparing with a standard curve generated using known quantities of the hormone.
The inhibition activity of aldosterone production can also be expressed in percentage inhibition (% inhibition) at a given concentration (e.g. % inhibition at 1 μM), which is the aldosterone level when the cell is treated with the given concentration of a compound of this invention (e.g. concentration of 1 μM) versus the aldosterone excretion when cell is free of the compound of the invention: % inhibition aldosterone production=[(Y−X)/Y]×100 wherein X is the level of aldosterone when the cell is treated with a compound according to anyone of Formulae I to V, or a pharmaceutically acceptable salt thereof; and Y is the level of aldosterone when the cell is free of compound according to anyone of Formulae I to V.

CYP11B1(cortisol) = target: T2, CYP11B1(cortisol) (Homo sapiens, UniProt P15538); test: Inhibition of cortisol production in NCI-H295R cells; assay type: cell-based; settings: inhibitory activity on cortisol production, read-out: Cortisol (cell)
T2 construct: Thus, the NCI-H295R cells have CYP11 B1 (steroid 11 β-hydroxylase); host or cells: NCI-H295R (human adrenocortical carcinoma)
T2 sequence (P15538 25-503): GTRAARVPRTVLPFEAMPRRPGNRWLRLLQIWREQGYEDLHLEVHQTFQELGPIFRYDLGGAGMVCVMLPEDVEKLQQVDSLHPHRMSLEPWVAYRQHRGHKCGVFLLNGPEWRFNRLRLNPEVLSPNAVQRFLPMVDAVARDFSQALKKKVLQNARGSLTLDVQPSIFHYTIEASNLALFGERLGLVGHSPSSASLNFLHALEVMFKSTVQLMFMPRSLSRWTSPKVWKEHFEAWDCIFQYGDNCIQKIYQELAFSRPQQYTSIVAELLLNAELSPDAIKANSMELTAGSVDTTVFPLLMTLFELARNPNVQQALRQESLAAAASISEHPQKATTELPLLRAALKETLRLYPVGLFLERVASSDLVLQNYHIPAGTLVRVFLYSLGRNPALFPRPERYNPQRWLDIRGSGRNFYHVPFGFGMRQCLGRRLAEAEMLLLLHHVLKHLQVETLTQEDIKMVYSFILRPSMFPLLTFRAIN
From the text: The in vitro inhibitory activities for CYP11B1 can be determined by the following assay.
The cell line NCI-H295R was originally isolated from an adrenocortical carcinoma and has been characterized in the literature through the stimulable secretion of steroid hormones and the presence of the enymes essential for steroidogenesis. Thus, the NCI-H295R cells have CYP11 B1 (steroid 11 β-hydroxylase). The cells show the physiological property of zonally undifferentiated human foetal adrenocortical cells which, however, have the capacity to produce the steroid hormones which are formed in the three, phenotypically distinguishable zones in the adult adrenal cortex.
The NCI-H295R cells (American Type Culture Collection, ATCC, Rockville, Md., USA) are grown in Dulbeoco's Modified Eagle'Ham F-12 Medium (DME/F12), which has been supplemented with Ulroser SF Serum (Soprachem, Cergy-Saint-Christophe, France), insulin, transferrin, selenite (I-T-S, Becton Dickinson Biosiences, Franklin lakes, NJ, USA) and antibiotics in 75 cm^2 cell culture vessels at 37° C. and in a 95% air-5% carbon dioxide atmosphere. The cells are subsequently transferred for colony formation into a 24-well incubation vessel. They are cultivated there in DME/F12 medium, which is now supplemented with 0.1% bovine serum instead of Ultroser SF for 24 hours. The experiment is initiated by cultivating the cells in DME/F12 medium which is supplemented with 0.1% bovine serum albumin and test compound, in the presence or absence of cell stimulants, for 72 hours. The test substance is added in a concentration range from 0.2 nanomolar to […]. Cell stimulants which can be used are angiotensin 11 ([…] or 100 nanomolar), potassium ions (16 millimolar), forskolin (10 micromolar) or a combination of two stimulants.
The excretion of aldosterone, cortisol, corticosterone and estradiol/estrone into the culture medium can be detected and quantified by commercially available, specific monoclonal antibodies in radioimmunoassays in accordance with the manufacturers instructions.
Inhibition of the release of certain steroids can be used as a measure of the respective enzyme inhibition by the added test compounds. The dose-dependent inhibition of enzymic activity by a compound is calculated by means of an inhibition plot which is characterized by an IC50.
The IC50 values for active test compounds are ascertained by a simple linear regression analysis in order to construct inhibition plots without data weighting. The inhibition plot is calculated by fitting a 4-parameter logistic function to the raw data points using the least squares method. The equation of the 4-parameter logistic function is calculated as follows: Y=(d−a)/((1+(x/c)b))+a, where: a=minimum data level, b=gradient, I […], d=maximum data level, x=inhibitor concentration.
The inhibition activity of CYP11B1 production can also be expressed in percentage inhibition (% inhibition) at a given concentration (e.g. % inhibition at 1 μM), which is the cortisol level when cell is treated with the given concentration of a compound of the invention (e.g. concentration of 1 μM) versus the cortisol excretion when cell is free of the compound of the invention. % inhibition cortisol production=[(Y′−X′)/Y′]×100 wherein X′ is the level of cortisol when the cell is treated with a compound according to anyone of Formulae I to V, or a pharmaceutically acceptable salt thereof; and Y′ is the level of cortisol when the cell is free of compound according to anyone of Formulae I to V.

CC(O)c1c(F)cncc1-c1ccc2cc(C#N)ccc2c1 (single isomer, unassigned) [5 (enantiomer-1), 6-(5-fluoro-4-(1-hydroxyethyl)pyridin-3-yl)-2-naphthonitrile]
IC50 (CYP11B2 (aldosterone)): 41.5 nM
IC50 (CYP11B1(cortisol)): 367 nM

CC(O)c1c(F)cncc1-c1cc2cc(Cl)c(F)cc2o1 (single isomer, unassigned) [Example 13d (enantiomer-2), 1-(3-(5-chloro-6-fluorobenzofuran-2-yl)-5-fluoropyridin-4-yl)ethanol]
IC50 (CYP11B2 (aldosterone)): 2.5 nM
IC50 (CYP11B1(cortisol)): 1070 nM

COc1cc(-c2cnccc2C(C)O)ccc1C#N (single isomer, unassigned) [Example 14 (enantiomer-1)]
IC50 (CYP11B2 (aldosterone)): 132 nM
IC50 (CYP11B1(cortisol)): 3390 nM

CC(O)c1c(F)cncc1-c1ccc(C#N)c(Cl)c1 (single isomer, unassigned) [Example 16 (enantiomer-2)]
IC50 (CYP11B2 (aldosterone)): 106 nM
IC50 (CYP11B1(cortisol)): 9420 nM

N#Cc1ccc(-c2cnccc2C2CCO2)cc1Cl (single isomer, unassigned) [Example 28 (enantiomer-1), 2-chloro-4-(4-(oxetan-2-yl)pyridin-3-yl)benzonitrile]
IC50 (CYP11B2 (aldosterone)): 23.5 nM
IC50 (CYP11B1(cortisol)): 783 nM

CC1OC(=O)c2cncc(-c3ccc(C#N)c(Cl)c3)c21 (stereo not shown) [Example 24, 2-chloro-4-(1-methyl-3-oxo-1,3-dihydrofuro[3,4-c]pyridin-7-yl)benzonitrile]
IC50 (CYP11B2 (aldosterone)): 261 nM

CC(C)OCC(O)c1c(F)cncc1-c1ccc(C#N)c(Cl)c1 (stereo not shown) [Example 30, 2-Chloro-4-[5-fluoro-4-(1-hydroxy-2-isopropoxy-ethyl)-pyridin-3-yl]-benzonitrile hydrochloride]
IC50 (CYP11B2 (aldosterone)): 144 nM
IC50 (CYP11B1(cortisol)): 4240 nM

CC(C)(O)c1c(F)cncc1-c1ccc(C#N)c(Cl)c1 [Example 32, 2-Chloro-4-[5-fluoro-4-(1-hydroxy-1-methyl-ethyl)-pyridin-3-yl]-benzonitrile]
IC50 (CYP11B2 (aldosterone)): 154 nM
IC50 (CYP11B1(cortisol)): 15000 nM

Cn1c(-c2cnccc2CO)nc2ccc(Cl)cc21 [Example 37, [3-(6-Chloro-1-methyl-1H-benzoimidazol-2-yl)-pyridin-4-yl]-methanol]
IC50 (CYP11B2 (aldosterone)): 120 nM
IC50 (CYP11B1(cortisol)): 12600 nM

CC(O)c1ccncc1-c1ccc(Cl)c(Cl)c1 (stereo not shown) [Example 46, 1-[3-(3,4-Dichloro-phenyl)-pyridin-4-yl]ethanol]
IC50 (CYP11B2 (aldosterone)): 76.5 nM
IC50 (CYP11B1(cortisol)): 672 nM
